Series [1] deals with Venezuelan Equine Encephalitis (Togaviridae) TC-83 strain. Type of series: cell-based, Venezuelan equine encephalitis virus. The note with it: read-out: EC50, VEE virus inhibition.
In series [2] the test system is Rift Valley Fever Virus (Bunyavirus) MP12 strain. Type of series: cell-based. The note with it: read-out: EC50, RVFV MP12 virus inhibition.
Series [3] deals with Chikungunya (Togaviridae) 181/25 strain. The series is classed as cell-based. The note with it: read-out: EC50, Chikungunya virus inhibition.
Series [4] relates to Vero cells.

For orientation: EC50 means the concentration needed to bring the measured effect to its halfway point. Take `CCCCN1C[C@H](O)[C@@H](O)[C@H](O)[C@H]1CO` [UV-1, N-Butyl deoxynojirimycin]: the EC50 in series [1] was determined as 156 µM.

On to `[N-]=[N+]=Nc1ccc(NCCCCCCN2C[C@H](O)[C@@H](O)[C@H](O)[C@H]2CO)c([N+](=O)[O-])c1` [UV-5, N—(N-{4′-azido-2′-nitrophenyl}-6-aminohexyl)deoxynojirimycin], for which the EC50 was determined as 49 µM in series [2], 2 µM in series [1] and 22 µM in series [3].

With `CCCOCCCCCCN1C[C@H](O)[C@@H](O)[C@H](O)[C@H]1CO` [UV-3, N-(7-Oxadecyl)deoxynojirimycin], the EC50 in series [2] stood at 218 µM.

In the case of `CCCCCCCCCN1C[C@H](O)[C@@H](O)[C@H](O)[C@H]1CO` [UV-2, N-Nonyl dexoynojirimycin], the figures for the 50% effective concentration (EC50) in series [2], in series [1] and in series [3] were 58 µM, 12 µM and 56 µM, respectively. For the same molecule, the “toxicity at the highest concentration” value in series [4] is “toxic”. In series [4], the “toxicity to cells at the highest concentration” value was “toxic”.
